In patent US9034820B2, “Method and composition for modulating erythropoiesis” (priority 2011, dated 2015):
“Also recorded” adds a separate entry of the source.

What was measured:
[1] = test system: human CD133+ hematopoietic stem cells (hHSCs); assay: flow cytometry of CD71 and GlyA protein on cultured hHSCs; type: cell-based; details: end of stage II induction
Protocol: (§1) CD133^+ stem cells were isolated from human umbilical cord blood by magnetic microbead selection using Direct […] progenitor isolation beads (Miltenyi Biotech, Bergisch Gladbach, Germany) and MACS LS-columns (Miltenyi Biotech), and were subsequently cultured. In stage I, 10^5 CD133^+ cells were cultured in 10 ml of EDM (10^4 cells/ml), containing human stem cell factor (SCF, 50 ng/ml), human EPO (6 IU/ml), human interleukin (IL)-3 (10 ng/ml), human vascular endothelial growth factor (VEGF, 10 ng/ml), and human insulin-like growth factor (IGF)-II (250 ng/ml) for 6 days. In stage II, cells were cultured in 10 ml of EDM (3×10^4 cells/ml) in the presence of SCF (50 ng/ml) and EPO (6 IU/ml) for 4 days. In stage III, cells were cultured in 10 ml of EDM (5×10^4 cells/ml) in the presence of SCF (50 ng/ml) and EPO (2 IU/ml) for 6 days. Cultured cells respectively underwent 30-, 20-, and 10-fold expansions in stages I, II, and III. All cell cultures were incubated at 37° C. in 5% CO2 under humidified conditions. LPA (Sigma) was prepared in chloroform and methanol (1:9) and stored at −20° C. LPA was added to serum-free medium with 0.005% fatty acid-free BSA as a carrier.
(§2) Ki16425 (Cayman Chemical, Ann Arbor, Mich., USA) powder was diluted in dimethyl sulfoxide (DMSO) at a concentration of 40 mM as the stock. At the ends of stages I and II, HSCs were pretreated with Ki16425 in serum-free medium for 1 h. Then, cells were cultured in media of stages II and III containing Ki16425 at a final concentration of 20 μM. Quercetin (Sigma) was dissolved in DMSO at 100 mM as the stock and stored at −20° C. Quercetin was diluted into each final concentration by culture media for treatment.
HSC cultures were collected, washed, and stained either with anti-GlyA-PE and anti-CD71-PE/Cy5 for 30 minutes (BD Biosciences Pharmingen, San Diego, Calif., USA). Stained cells were washed and resuspended in PBS. Non-stained and single-stained samples were prepared for fluorescent compensation. […]

[2] = test system: human CD133+ hematopoietic stem cells (hHSCs); assay: real-time PCR of erythroid marker mRNA in cultured hHSCs during erythropoietic differentiation; type: cell-based
Protocol: as §1, §2
Total RNA extraction was isolated using Trizol Reagent (Invitrogen, Carlsbad, Calif., USA). Complementary (c)DNA was synthesized from 1 μg total RNA with a reverse-transcription polymerase chain reaction (RT-PCR). Primer sequences were:
A real-time PCR with the mixture reagent SYBR®-Green I (Thermo Scientific, San Diego, Calif., USA) was carried out on an iCycler iQ™ real-time detection system (Bio-Rad, Hercules, Calif., USA). The specificity of the primers was confirmed from a single peak of the melting curve. Each target mRNA level was evaluated from the real-time threshold cycle and compared to the GAPDH amount as an internal control.

[3] = test system: human CD133+ hematopoietic stem cells (hHSCs); assay: expansion and differentiation of hHSC-derived erythroid cells in culture; type: cell-based; details: LPA present, EPO-free, data not shown
Protocol: as §1
Ki16425 (Cayman Chemical, Ann Arbor, Mich., USA) powder was diluted in dimethyl sulfoxide (DMSO) at a concentration of 40 mM as the stock. […]

[4] = test system: zLPA3; assay: o-dianisidine blood cell staining of zLPA3 morpholino-injected zebrafish embryos; type: in vivo, zebrafish (Danio rerio); details: for percentages of erythrocyte-defective embryos compared to control embryos: 48 hpf and 60 hpf; for effect of LPA3 knockdown on erythrocyte formation (o-dianisidine staining; normal, moderate, severe): injected at one-cell stage, 0, 2.5 and 5 ng, 48 hpf
Protocol: Wild-type zebrafish (Danio rerio) obtained from the Zebrafish Information Research Center (Eugene, Oreg., USA) were inbred at 27-28° C. Embryos were collected from natural spawning, washed, and incubated in 0.3× Danieau's buffer at 28° C. until being used. Each stage of fish embryos was determined from their morphology. Embryos at 12 hour post-fertilization (hpf) were treated with 0.2 mM 1-phenyl-2-thiourea (PTU) (Sigma, St. Louis, Mo., USA) in 0.3× Danieau's buffer to suppress melanization. Dechorionation of embryos was carried out with 0.01 g/ml protease (Sigma).
Glass capillary tubes were pulled by a horizontal puller (P-97, Sutter Instrument, Navato, Calif., USA). Two zLPA3 translation-blocking (t)MOs (Gene Tools, Philomath, Oreg., USA) were utilized as follows:
tMO1: 5′-[…]-3′ (−27 to −3) (SEQ ID No. 1); and
tMO2: 5′-[…]-3′ (+1 to +23) (SEQ ID No. 2).
The MOs were prepared at 1 mM in sterile H2O as a stock solution, and further diluted into desired working concentrations in 1× Danieau's buffer with 0.5% phenol red. Fish embryos were fixed on 1% injection agar plates, and 2.3 nl of solution was injected into the yolk sac and blastodisc interface with a nanoliter injector (World Precision Instruments, Sarasota, Fla., USA). The injected embryos were incubated in 0.3× Danieau's buffer at 28.5° C. for further experiments.
Embryos from designated stages were incubated in freshly prepared o-dianisidine solution (40% ethanol, 0.01 M sodium acetate, 0.65% H2O2, and 0.6 mg/ml o-dianisidine [Sigma]) for 15 minutes in the dark.

[5] = stage II, 24-hour LPA 18:1 (1~10 μM), plasma-free medium, concentration-dependent

CCCCCCCC/C=C\CCCCCCCC(=O)OCC(O)COP(=O)(O)O (stereo not drawn) [LPA, (2-hydroxy-3-phosphonooxypropyl) (Z)-octadec-9-enoate]
protein expression level of CD71 ([1]; 5 and 10 μM LPA, 4 days): higher levels
protein expression level of GlyA ([1]; 5 and 10 μM LPA, 4 days): not GlyA
mRNA level of CD71 [2, 5]: increased; also recorded: elevated
mRNA level of GATA-1 [2, 5]: elevated
mRNA level of GlyA [2, 5]: elevated
differentiation of erythroid cells in the absence of EPO [3]: severely decreased

O=c1c(O)c(-c2ccc(O)c(O)c2)oc2cc(O)cc(O)c12 [quercetin]
LPA-induced protein expression of CD71 ([1]; quercetin (20 μM)): decreased; also recorded: suppressed
increase in CD71 mRNA under LPA induction ([2]; quercetin 5, 20 and 50 μM): suppressed; also recorded: inhibited

tMO1: zLPA3 translation-blocking morpholino 5′-CACTGTCCTAGTGGGTTTTGTCCAA-3′ (SEQ ID No. 1) (all phosphorodiamidate morpholino (PMO))
percentages of erythrocyte-defective embryos compared to control embryos [4]: significantly higher
effect of LPA3 knockdown on erythrocyte formation (o-dianisidine staining; normal, moderate, severe) [4]: dose-dependent effect

tMO2: zLPA3 translation-blocking morpholino 5′-ATGGCCAGGCACAACATCTGCTA-3′ (SEQ ID No. 2) (all phosphorodiamidate morpholino (PMO))
percentages of erythrocyte-defective embryos compared to control embryos [4]: significantly higher
effect of LPA3 knockdown on erythrocyte formation (o-dianisidine staining; normal, moderate, severe) [4]: dose-dependent effect
